Laboratory results taken from publication PMC10392026, “Vacuolar Phosphate Transporter1 (VPT1) may transport sugar in response to soluble sugar status of grape fruits” (Horticulture Research, 2022).

Key:
Type in all cases: cell-based
VvVPT1 = molecular target: T1, VvVPT1 (Vitis vinifera, UniProt D7TW83); assay: fluorescent uptake in yeast, confocal microscopy; details: 60 uM 2-NBDG, 30 °C, 3 h; EBY.VW4000 yeast
T1 construct: gene VIT_02s0025g04540; full-length CDS (698 residues implied by VvVPT1_155-698) in pDR195, expressed in yeast hexose transport mutant EBY.VW4000

AtVPT1 = molecular target: T2, AtVPT1 (Arabidopsis thaliana, UniProt F4I0G7); details: 1-20 mM Pi, 30 °C, 5 d; indirect growth read-out
T2 construct: gene VPT1; full-length CDS (708 residues implied by AtVPT1_162-708) in pRS426, expressed in yeast Pi uptake mutant YP101

FaVPT1 [1] = molecular target: T3, FaVPT1 (Fragaria x ananassa, UniProt Z9SEB9UZJ4); assay: yeast growth complementation (SUSY7/ura3); details: […] (w/v) Suc as sole carbon source, […] °C; indirect growth read-out
T3 construct: full-length CDS (696 residues implied by FaVPT1_147-696) in pDR195, expressed in yeast sucrose transport mutant SUSY7/ura3
T3 sequence (Z9SEB9UZJ4 1-696): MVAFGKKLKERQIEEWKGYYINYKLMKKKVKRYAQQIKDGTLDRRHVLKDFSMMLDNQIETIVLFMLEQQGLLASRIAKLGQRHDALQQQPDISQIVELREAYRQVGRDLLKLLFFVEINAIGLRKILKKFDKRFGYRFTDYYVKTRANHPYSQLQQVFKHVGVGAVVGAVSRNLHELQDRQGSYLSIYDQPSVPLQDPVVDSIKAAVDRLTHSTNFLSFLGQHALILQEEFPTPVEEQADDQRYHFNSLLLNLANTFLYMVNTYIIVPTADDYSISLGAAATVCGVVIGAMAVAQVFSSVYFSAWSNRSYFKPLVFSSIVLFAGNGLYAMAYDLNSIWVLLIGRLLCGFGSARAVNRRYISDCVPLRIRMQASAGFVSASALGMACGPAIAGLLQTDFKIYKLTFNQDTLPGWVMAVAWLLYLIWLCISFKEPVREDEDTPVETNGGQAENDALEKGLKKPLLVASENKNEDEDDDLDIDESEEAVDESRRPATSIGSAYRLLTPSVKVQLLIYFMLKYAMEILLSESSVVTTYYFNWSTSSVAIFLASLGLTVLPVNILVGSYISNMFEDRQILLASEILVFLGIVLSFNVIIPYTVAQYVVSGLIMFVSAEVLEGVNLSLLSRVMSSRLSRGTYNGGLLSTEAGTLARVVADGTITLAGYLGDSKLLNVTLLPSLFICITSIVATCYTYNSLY

FaVPT1 [2] = molecular target: T3, FaVPT1; assay: fluorescent uptake in yeast, confocal microscopy; details: […] esculin, […] Na2HPO4 pH […] °C, […] h; SUSY7/ura3 yeast

T2 sequence (F4I0G7 1-708): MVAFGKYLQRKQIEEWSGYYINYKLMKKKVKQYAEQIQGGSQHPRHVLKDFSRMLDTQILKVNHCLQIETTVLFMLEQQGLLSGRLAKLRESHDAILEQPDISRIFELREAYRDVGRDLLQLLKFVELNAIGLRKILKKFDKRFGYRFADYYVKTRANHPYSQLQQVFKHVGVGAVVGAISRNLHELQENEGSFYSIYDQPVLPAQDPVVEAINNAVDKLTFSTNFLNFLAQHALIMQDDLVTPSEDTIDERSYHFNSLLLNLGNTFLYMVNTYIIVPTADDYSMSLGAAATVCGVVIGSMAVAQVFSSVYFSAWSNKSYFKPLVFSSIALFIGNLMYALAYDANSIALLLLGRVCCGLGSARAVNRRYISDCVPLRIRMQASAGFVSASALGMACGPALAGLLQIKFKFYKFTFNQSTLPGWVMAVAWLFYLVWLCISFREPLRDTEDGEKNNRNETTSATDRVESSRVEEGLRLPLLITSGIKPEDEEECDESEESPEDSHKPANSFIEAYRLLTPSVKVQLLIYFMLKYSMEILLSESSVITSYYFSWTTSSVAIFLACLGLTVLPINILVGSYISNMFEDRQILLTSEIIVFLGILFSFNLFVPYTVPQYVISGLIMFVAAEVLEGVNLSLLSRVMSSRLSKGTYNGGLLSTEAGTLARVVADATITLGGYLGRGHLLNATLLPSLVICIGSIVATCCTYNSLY
T1 sequence (D7TW83 entry or part of it): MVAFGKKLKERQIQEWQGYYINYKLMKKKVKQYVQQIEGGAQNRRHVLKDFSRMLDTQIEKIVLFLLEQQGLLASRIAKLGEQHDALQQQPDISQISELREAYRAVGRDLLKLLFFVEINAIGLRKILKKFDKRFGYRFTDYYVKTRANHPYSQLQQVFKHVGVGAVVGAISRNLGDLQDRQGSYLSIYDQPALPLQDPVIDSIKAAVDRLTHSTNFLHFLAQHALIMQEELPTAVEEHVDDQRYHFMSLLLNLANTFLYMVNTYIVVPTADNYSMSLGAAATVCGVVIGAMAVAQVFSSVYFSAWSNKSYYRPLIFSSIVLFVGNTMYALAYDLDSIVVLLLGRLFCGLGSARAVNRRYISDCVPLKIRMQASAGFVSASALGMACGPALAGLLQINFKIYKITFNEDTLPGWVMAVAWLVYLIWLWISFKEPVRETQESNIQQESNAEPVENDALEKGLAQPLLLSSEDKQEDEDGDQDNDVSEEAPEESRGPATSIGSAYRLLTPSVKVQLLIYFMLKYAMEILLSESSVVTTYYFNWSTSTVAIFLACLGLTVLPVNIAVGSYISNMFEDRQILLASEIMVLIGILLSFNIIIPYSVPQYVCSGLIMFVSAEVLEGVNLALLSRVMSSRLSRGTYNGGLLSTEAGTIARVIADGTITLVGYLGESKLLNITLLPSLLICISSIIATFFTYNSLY

O=[N+]([O-])c1ccc(N[C@H]2C(O)O[C@H](CO)[C@@H](O)[C@@H]2O)c2nonc12 (stereo partly drawn) [2-NBDG, 2-[N-(7-nitrobenz-2-oxa-1,3-diazol-4-yl)amino]-2-deoxy-d-Glc]
fluorescent uptake in yeast, confocal microscopy (VvVPT1): The fluorescence in VvVPT1-expressed yeast strain was stronger than that of the WT

O=P(O)(O)O [Pi]
yeast growth complementation (YP101) (AtVPT1): The yeast mutant transformed with FaVPT1, VvVPT1, or AtVPT1 restored growth

OC[C@H]1O[C@@](CO)(O[C@H]2O[C@H](CO)[C@@H](O)[C@H](O)[C@H]2O)[C@@H](O)[C@@H]1O [Suc]
yeast growth complementation (SUSY7/ura3) (FaVPT1 [1]): only FaVPT1 has sucrose transport capacity

O=c1ccc2cc(O[C@@H]3O[C@H](CO)[C@@H](O)[C@H](O)[C@H]3O)c(O)cc2o1 [esculin]
fluorescent uptake in yeast, confocal microscopy (FaVPT1 [2]): the FaVPT1-expressed yeast strain could take up both esculin and sucrose
